Laboratory results: patent US10875860B2, “Azaindenoisoquinoline compounds and uses thereof” (Purdue Research Foundation, priority 2016, dated 2020)
Read-outs that look alike come from different tables or passages of the source.

Columns and labels:
[1] = target: T1, Top1 (Homo sapiens, UniProt P11387); assay: Top1-mediated DNA cleavage assay; format: biochemical; design: Top1 inhibitory activity level / Top1 inhibitory activity score: key to the marks not given beside the values; settings: for Enzyme Inhibitory Activity Top1: DNA cleavage relative to 1 μM MJ-III-65 (19) and 1 μM camptothecin (18); for Top1 inhibitory activity level: series 1
T1 sequence (P11387 1-765): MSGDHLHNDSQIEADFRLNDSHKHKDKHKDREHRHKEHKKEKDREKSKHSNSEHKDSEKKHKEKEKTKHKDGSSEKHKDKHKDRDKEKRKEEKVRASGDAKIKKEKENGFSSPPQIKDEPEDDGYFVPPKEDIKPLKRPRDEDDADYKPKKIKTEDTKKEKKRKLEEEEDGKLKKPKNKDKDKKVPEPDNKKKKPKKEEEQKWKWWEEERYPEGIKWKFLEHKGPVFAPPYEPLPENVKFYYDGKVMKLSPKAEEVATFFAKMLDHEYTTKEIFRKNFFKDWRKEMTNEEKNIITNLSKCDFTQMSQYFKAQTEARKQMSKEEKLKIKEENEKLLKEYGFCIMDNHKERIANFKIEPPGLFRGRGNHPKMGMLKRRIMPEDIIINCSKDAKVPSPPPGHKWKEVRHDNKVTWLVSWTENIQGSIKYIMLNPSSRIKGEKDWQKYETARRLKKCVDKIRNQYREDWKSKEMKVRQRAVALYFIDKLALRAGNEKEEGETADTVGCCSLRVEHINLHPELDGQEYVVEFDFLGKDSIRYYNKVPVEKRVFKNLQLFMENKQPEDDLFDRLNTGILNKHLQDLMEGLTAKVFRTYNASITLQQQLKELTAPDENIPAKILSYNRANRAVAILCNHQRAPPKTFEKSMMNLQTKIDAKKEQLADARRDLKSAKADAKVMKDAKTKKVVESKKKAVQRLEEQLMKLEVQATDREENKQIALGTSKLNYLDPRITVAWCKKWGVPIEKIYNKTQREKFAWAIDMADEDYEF

[2] = target: Tdp1 (Homo sapiens, UniProt Q9NUW8); assay: Recombinant Tdp1 assay; format: biochemical
Tdp1, sequence (Q9NUW8 whole entry): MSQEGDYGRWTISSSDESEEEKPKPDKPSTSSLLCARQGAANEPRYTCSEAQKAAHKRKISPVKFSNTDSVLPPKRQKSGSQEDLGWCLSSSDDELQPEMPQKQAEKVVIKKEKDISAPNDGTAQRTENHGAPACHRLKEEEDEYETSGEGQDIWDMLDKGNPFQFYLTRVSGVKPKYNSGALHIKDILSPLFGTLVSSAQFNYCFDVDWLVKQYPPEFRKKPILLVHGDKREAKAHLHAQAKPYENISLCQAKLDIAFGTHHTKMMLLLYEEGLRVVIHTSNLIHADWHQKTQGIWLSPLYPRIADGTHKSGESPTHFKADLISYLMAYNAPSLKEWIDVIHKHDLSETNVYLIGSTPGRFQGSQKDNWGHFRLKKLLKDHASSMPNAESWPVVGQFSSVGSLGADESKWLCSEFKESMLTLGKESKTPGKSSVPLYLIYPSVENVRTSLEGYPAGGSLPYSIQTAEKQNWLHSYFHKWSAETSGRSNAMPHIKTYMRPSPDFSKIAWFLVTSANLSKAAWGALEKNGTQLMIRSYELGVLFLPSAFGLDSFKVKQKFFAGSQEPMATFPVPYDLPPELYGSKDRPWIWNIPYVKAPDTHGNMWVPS

[3] = target: T2, recombinant human TDP2 (Homo sapiens, UniProt O95551); assay: Recombinant Tdp2 assay; format: biochemical
T2 sequence (O95551 1-362): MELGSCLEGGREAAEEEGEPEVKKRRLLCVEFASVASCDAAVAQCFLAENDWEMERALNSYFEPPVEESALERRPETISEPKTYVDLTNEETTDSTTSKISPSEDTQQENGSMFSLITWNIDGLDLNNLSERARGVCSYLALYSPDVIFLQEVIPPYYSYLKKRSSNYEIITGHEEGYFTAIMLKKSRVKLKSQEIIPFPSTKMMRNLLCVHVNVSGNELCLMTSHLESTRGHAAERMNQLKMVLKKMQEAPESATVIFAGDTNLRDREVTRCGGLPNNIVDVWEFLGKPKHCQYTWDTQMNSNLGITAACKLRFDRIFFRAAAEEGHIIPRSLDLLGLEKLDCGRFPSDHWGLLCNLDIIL
Description: TDP2 reactions were carried out as described previously with the following modifications. […] Reactions were terminated and treated similarly to whole-cell extract and recombinant Tdp1 reactions (see previous paragraph).

[4] = system: SN12C; assay: NCI-60 cytotoxicity, SN12C; settings: Homo sapiens, read-out: Cytotoxicity (GI50) Renal SN12C
[5] = system: MCF-7; assay: NCI-60 cytotoxicity, MCF-7; settings: Homo sapiens, MCF7, read-out: Cytotoxicity (GI50) Breast MCF-7
[6] = system: HOP-62; assay: NCI-60 cytotoxicity, HOP-62; settings: Homo sapiens, HOP-62, read-out: Cytotoxicity (GI50) Lung HOP-62
[7] = system: SF-539; assay: NCI-60 cytotoxicity, SF-539; settings: Homo sapiens, SF-539, read-out: Cytotoxicity (GI50) CNS SF-539
[8] = system: UACC-62; assay: NCI-60 cytotoxicity, UACC-62; settings: Homo sapiens, UACC-62, read-out: Cytotoxicity (GI50) Melanoma UACC-62
[9] = system: OVCAR-3; assay: NCI-60 cytotoxicity, OVCAR-3; settings: Homo sapiens, OVCAR-3, read-out: Cytotoxicity (GI50) Ovarian Ovcar-3
[10] = system: NCI-60 panel of human cancer cell lines; assay: NCI-60 screen, mean graph midpoint over all cell lines; settings: for GI50: Homo sapiens
[11] = system: HCT-116; assay: NCI-60 cytotoxicity, HCT-116; format: cell-based; settings: Homo sapiens, single determinations, Table 2, read-out: Cytotoxicity (GI50) Colon HCT-116
[12] = system: DU-145; assay: NCI-60 cytotoxicity, DU-145; format: cell-based; settings: Homo sapiens, single determinations, Table 2, read-out: Cytotoxicity (GI50) Prostate DU-145
[13] = semiquantitative scale, in duplicate, Table 1, read-out: Enzyme Inhibitory Activity Tdp1
[14] = semiquantitative scale, in duplicate, Table 1, read-out: Enzyme Inhibitory Activity Tdp2
[15] = read-out: Cytotoxicity (GI50) MGM
[16] = determined in duplicate, Table 2, read-out: Enzyme Inhibitory Activity Tdp1 (IC50)
[17] = read-out: Enzyme Inhibitory Activity Tdp2 (IC50)

SMILES | Enzyme Inhibitory Activity Top1 ([1]; Table 1) | Top1 inhibitory activity level [1] | IC50 [2, 13] [nM] | IC50 [3, 14] [nM] | melting point [°C] | GI50 [4] [nM] | GI50 [5] [nM] | GI50 [6] [nM] | GI50 [7] [nM] | GI50 [8] [nM] | GI50 [9] [nM] | GI50 [10, 15] [nM] | GI50 ([10]; read-out: MGM (GI50 mean graph midpoint)) [nM] | cytotoxicity in the one-concentration preliminary testing ([10]; NCI-60 initial 1-concentration test) | Enzyme Inhibitory Activity Top1 ([1]; Table 2) | IC50 [2, 16] [nM] | IC50 ([3]; determined in duplicate, Table 2, read-out: Enzyme Inhibitory Activity Tdp2 (IC50)) [nM] | GI50 [11] [nM] | GI50 [12] [nM] | IC50 [3, 17] [nM]
COc1cnc2c(c1)C(=O)c1c-2n(CCCNC2=NCCS2)c(=O)c2cc([N+](=O)[O-])ccc12 [Compound 12, 7-Aza-5,6-dihydro-6-[3-((4,5-dihydrothiazol-2-yl)amino)propyl]-9-methoxy-3-nitro-5,11-dioxo-11H-indeno[1,2-c]isoquinoline] | ++++ | ++++ | 1000 to 12000 | 12000 to 37000 | 175 to 177 | < 10 | < 10 | 14 | 36 | < 10 | 137 | 58 |  |  |  |  |  |  |  | 
COc1cnc2c(c1)C(=O)c1c-2n(CCCN2CCN(CCO)CC2)c(=O)c2cc([N+](=O)[O-])ccc12 [Compound 16, 7-Aza-5,6-dihydro-6-[3-(4-(2-hydroxyethyl)piperazin-1-yl)propyl]-9-methoxy-3-nitro-5,11-dioxo-11H-indeno[1,2-c]isoquinoline] | +++ | +++ | > 111000 | > 111000 | 214 to 216 |  | 142 | 2760 | 1700 | 1220 | 1460 | 1660 | 1650 |  |  |  |  |  |  | 
COc1cnc2c(c1)C(=O)c1c-2n(CCCN2CCC(N)CC2)c(=O)c2cc([N+](=O)[O-])ccc12 [Compound 17, 6-[3-(4-Aminopiperidin-1-yl)propyl]-7-aza-5,6-dihydro-9-methoxy-3-nitro-5,11-dioxo-11H-indeno[1,2-c]isoquinoline] | ++ | ++ | 1000 to 12000 | 1000 to 12000 | 258 to 260 |  |  |  |  |  |  |  |  | low cytotoxicity |  |  |  |  |  | 
COc1cnc2c(c1)C(=O)c1c-2n(CCCN2CCC(O)CC2)c(=O)c2cc(F)ccc12 [Compound 17d, 3-Fluoro-6-(3-(4-hydroxypiperidin-1-yl)propyl)-9-methoxy-5H-pyrido[3′,2′:4,5]-cyclopenta[1,2-c]-isoquinoline-5,11(6H)-dione] |  |  |  |  |  | 189 | 31 | 142 | 295 | 240 | 254 | 199 |  |  | + | > 111000 | > 111000 | 89 | 174 | 
COc1cnc2c(c1)C(=O)c1c-2n(CCCN2CCNCC2)c(=O)c2cc(F)ccc12 [Compound 17e, 3-Fluoro-9-methoxy-6-(3-(piperazin-1-yl)propyl)-5H-pyrido[3′,2′:4,5]cyclopenta-[1,2-c]isoquinoline-5,11(6H)-dione] |  |  |  |  |  | 80 | 34 | 66 | 532 | 1260 | 335 | 218 |  |  | + | > 111000 |  | 91 | 62 | 107000 ± 5200
CCNCCCn1c2c(c3ccc(F)cc3c1=O)C(=O)c1cc(OC)cnc1-2 [Compound 17h, 6-(3-(Ethylamino)propyl)-3-fluoro-9-methoxy-5H-pyrido[3′,2′:4,5]cyclopenta[1,2-c]isoquinoline-5,11(6H)-dione] |  |  |  |  |  | 151 | 42 | 149 | 320 | 341 | 282 | 229 |  |  | ++ | > 111000 |  | 136 | 215 | 104000
